Several values for one entry are separate records, joined by “and”; a condition that tells them apart may be missing. Equal entries are not always repeated. Square brackets hold non-standard residues; d marks the D form. Peptide text beside a SMILES is read from it. βAla = NCCC(=O)O

Series [1] has as its system human kidney proximal tubular cells (HKC-8).
In series [2] the test system is Agrobacterium tumefaciens GV3101. Briefly: Specificity: growth in liquid culture (OD620). It is filed as cell-based. As to conditions: 200 µM; LB medium; measured hourly up to 5 h.
Series [3] concerns P. viticola. It is filed as in vivo, Plasmopara viticola (Berk. et Curt.) Berl. and De Toni. As to conditions: grapevine (Vitis vinifera cv. Pinot noir) leaf discs; mean ± standard deviation vs untreated control; concentration not given.
Series [4] can be described thus: Chemical-physical properties (isoelectric point, net charge, solubility in water). It is filed as physicochemical. The note with it: for net charge: at pH 7.
Series [5] concerns P. capsici. It is filed as cell-based, Phytophthora capsici Leonian.
Series [6] relates to P. ultimum. It is filed as cell-based, Pythium ultimum var. ultimum Trow.
Series [7] in a line: Conformational studies based on circular dichroism. It is filed as physicochemical. The method, then:
Conformational studies based on circular dichroism were performed under different conditions, such as: • 10 mM phosphate buffer, pH 7 • MES buffer 10 mM, pH 6 • Buffer acetate 10 mM, pH 5 • Phosphate buffer 10 mM/TFE (1:1) • TFE (trifluoroethanol)
Conformational studies based on circular dichroism were performed under different conditions such as: • 10 mM phosphate buffer, pH7 • Phosphate buffer 10mM/TFE, pH7 (1:1) • TFE (trifluoroethanol)
Conformational studies based on circular dichroism were performed under different conditions, such as: • 10 mM phosphate buffer, pH7 • MES buffer 10 mM, pH6 • Buffer acetate 10 mM, pH5 • Phosphate buffer 10 mM/TFE, pH7 (1:1) • TFE (trifluoroethanol)
Conformational studies based on circular dichroism were performed under different conditions, such as: • 10 mM phosphate buffer, pH7 • 10mM phosphate buffer/TFE (1:1) • TFE (trifluoroethanol)

[8] abbreviates: pH 7-TFE: phosphate buffer 10 mM/TFE (1:1).

Consider `CSCC[C@@H]1NC(=O)[C@H](Cc2c[nH]c3ccccc23)NC(=O)[C@H](CCCNC(=N)N)NC(=O)CCNC(=O)[C@H](CCCNC(=N)N)NC(=O)[C@H](CCCNC(=N)N)NC(=O)[C@H](Cc2ccc(O)cc2)NC(=O)[C@H](C(C)C)NC(=O)[C@H](CC(C)C)NC1=O` [CP20, βA-R-W-M-L-V-Y-R-R] (cyclo(LVYRR[βAla]RWM)), for which the “cytotoxicity (cell viability, absorption at 570 nm)” value in series [1] is “not toxic to human cells”. Also, the “bacterial growth (OD620)” value in series [2] was “no alteration in bacterial growth”. In addition, the “P. viticola (IPP - %)” value in series [3] is 89.93 ± 11.69 (b) %. Further, in series [4], the isoelectric point worked out at 12.4 pH, the net charge entry is recorded as “+3” and the solubility in water result is “good solubility in water”. Also, in series [5], the “P. capsici (PIC - %)” value was 100% and 100 ± 0 (a) %. The “P. ultimum (IPP - %)” value in series [6] was 75% and 75.98 ± 4.54 (c) %. In addition, in series [7] (10 mM phosphate buffer, pH 7), the “Disordered (%)” value was 32%, the “Helixes (%)” value is on record as 6%, the “Sheets (%)” value is recorded as 40% and the “Turns (%)” value was 22%. Moreover, in series [7] (MES buffer 10 mM, pH 6), the “Disordered (%)” value is reported as 34%, the “Helixes (%)” value worked out at 8%, the “Sheets (%)” value was determined as 37% and the “Turns (%)” value is recorded as 21%. Besides, in series [7] (TFE (trifluoroethanol)), the “Disordered (%)” value is on record as 33%, the “Helixes (%)” value amounted to 10%, the “Sheets (%)” value is recorded as 35% and the “Turns (%)” value was found to be 22%. Moreover, in series [7] (acetate buffer 10 mM, pH 5), the “Disordered (%)” value is on record as 31%, the “Helixes (%)” value is 7%, the “Sheets (%)” value was found to be 39% and the “Turns (%)” value came out at 23%. Also, in series [7] (setting [8]), the “Disordered (%)” value stood at 34%, the “Helixes (%)” value was found to be 8%, the “Sheets (%)” value is 36% and the “Turns (%)” value was determined as 22%.
For `CC(C)C[C@@H]1NC(=O)[C@H](CCCNC(=N)N)NC(=O)CNC(=O)CCNC(=O)[C@H](C(C)C)NC(=O)[C@H](CCCNC(=N)N)NC(=O)[C@H](CC(C)C)NC(=O)[C@H](Cc2c[nH]c3ccccc23)NC(=O)[C@H](CCCNC(=N)N)NC1=O` [CP32, βA-G-R-L-R-W-L-R-V] (cyclo(GRLRWLRV[βAla])), the “cytotoxicity (cell viability, absorption at 570 nm)” value in series [1] is reported as “not toxic to human cells”. In series [2], the “bacterial growth (OD620)” value was “no alteration in bacterial growth”. Moreover, in series [3], the “P. viticola (IPP - %)” value was 95% and 94.92 ± 6.45 (b) %. Also, in series [4], the isoelectric point was 14 pH, the net charge entry is on record as “+3” and the solubility in water entry was “good solubility in water”. For the same compound, the “P. capsici (PIC - %)” value in series [5] is given as 89.25 ± 7.35 (b) %. Also, the “P. ultimum (IPP - %)” value in series [6] is 85% and 85.42 ± 7.28 (b) %. Moreover, in series [7] (10 mM phosphate buffer, pH 7), the “Disordered (%)” value was found to be 43%, the “Helixes (%)” value was determined as 5%, the “Sheets (%)” value amounted to 34% and the “Turns (%)” value was determined as 18%. For the same compound, in series [7] (TFE (trifluoroethanol)), the “Disordered (%)” value is 47%, the “Helixes (%)” value is 6%, the “Sheets (%)” value is recorded as 29% and the “Turns (%)” value is listed as 18%. In series [7] (setting [8]), the “Disordered (%)” value was found to be 44%, the “Helixes (%)” value came to 5%, the “Sheets (%)” value came out at 33% and the “Turns (%)” value is 18%.

(Values after EP4549575A1 (priority 2023, dated 2025).)
